From ChEMBL document CHEMBL1153614, “Synthesis, spectral characterization, in-vitro microbiological evaluation and cytotoxic activities of novel macrocyclic bis hydrazone” (Eur J Med Chem, 2009)

How the values were obtained:
Micrococcus = assay: Antibacterial activity against Micrococcus sp. at 10 ug/ml for 24 hrs by disc diffusion method; assay type: functional
Staphylococcus aureus = assay: Antibacterial activity against Staphylococcus aureus at 10 ug/ml for 24 hrs by disc diffusion method; assay type: functional
Bacillus cereus = assay: Antibacterial activity against Bacillus cereus at 10 ug/ml for 24 hrs by disc diffusion method; assay type: functional
Shigella dysenteriae = assay: Antibacterial activity against Shigella dysenteriae at 10 ug/ml for 24 hrs by disc diffusion method; assay type: functional
Bacillus subtilis = assay: Antibacterial activity against Bacillus subtilis at 10 ug/ml for 24 hrs by disc diffusion method; assay type: functional
Pseudomonas aeruginosa = assay: Antibacterial activity against Pseudomonas aeruginosa at 10 ug/ml for 24 hrs by disc diffusion method; assay type: functional
Escherichia coli = assay: Antibacterial activity against Escherichia coli at 10 ug/ml for 24 hrs by disc diffusion method; assay type: functional
Aspergillus niger = assay: Antifungal activity against Aspergillus niger at 10 ug/ml for 48 hrs by disc diffusion method; assay type: functional
Candida albicans = assay: Antifungal activity against Candida albicans at 10 ug/ml for 48 hrs by disc diffusion method; assay type: functional
Penicillium = assay: Antifungal activity against Penicillium at 10 ug/ml for 48 hrs by disc diffusion method; assay type: functional
Artemia salina = assay: Toxicity against Artemia salina; assay type: organism-based; conditions: in vivo

Row | Compound | Activity (Micrococcus) [mm] | Activity (Staphylococcus aureus) [mm] | Activity (Bacillus cereus) [mm] | Activity (Shigella dysenteriae) [mm] | Activity (Bacillus subtilis) [mm] | Activity (Pseudomonas aeruginosa) [mm] | Activity (Escherichia coli) [mm] | Activity (Aspergillus niger) [mm] | Activity (Candida albicans) [mm] | Activity (Penicillium) [mm] | Activity (Artemia salina)
1 | GENTAMICIN | 20 | 20 | 20 | 20 | 20 | 20 | 20 |  |  |  | 
2 | OC(Cn1cncn1)(Cn1cncn1)c1ccc(F)cc1F [FLUCONAZOLE] |  |  |  |  |  |  |  | 24 | 24 | 24 | 
3 | Cc1cc2c(O)c(c1)/C=N\NC(=O)c1ccc(cc1)C(=O)N/N=C\c1cc(O)c(cc1C)/C=N\NC(=O)c1ccc(cc1)C(=O)NN=C2 | 14 | 10 | 16 | 16 | 20 | 14 | 16 | 22 | 16 | 20 | Non-toxic
